Reference: article PMC3882240, “Matrix Stiffness Affects Endocytic Uptake of MK2-Inhibitor Peptides” (PLoS ONE, 2014)
Where a SMILES comes first, the peptide text is derived from it. Where no end group is shown, it is not given here. The star is where a group is joined. FITC = O=C1OC2(c3ccc(O)cc3Oc3cc(O)ccc32)c2ccc(NC(=S)*)cc21; Ahx = NCCCCCC(=O)O

Tested on: mesothelial cells
Assay: Intracellular uptake of FITC-YARA by flow cytometry / confocal imaging
Assay type: cell-based, Human
Experimental: Flow cytometry was used to characterize the uptake of FITC-YARA. Mesothelial cells were seeded on gel substrates or tissue culture plastic, and cultured as previously described. After treating overnight with serum free media, cells were treated with various concentrations of FITC-YARA (refer to figures) or PBS (untreated control) in serum free media and incubated for 24 hours. To collect cells for flow cytometry, cells were washed with PBS, trypsin treated for 5–10 minutes, neutralized with serum-containing media, collected in a 15-ml conical tube and spun down at 300 × g for seven minutes. Cells were washed with PBS, quenched with trypan blue, then washed four to five times with PBS. Once excess trypan blue was washed away, cells were fixed using 1X cytofix buffer (BD). Samples were stored protected from light at 4°C until samples were run on the Cytomics FC500 MPL flow cytometer (Beckman Coulter) equipped with MXP Cytometry List Mode Data Acquisition and Analysis Software. Data acquisition required 10,000 events. Figures were obtained using Flow Jo software.
To characterize uptake on soft substrates, cells were pretreated with 10 mM methyl-β-cyclodextrin (MβCD) for 1 hour or incubated at 4°C for 30 minutes, then treated with 3 µM YARA for 1 hour. Cells were then collected and assayed by flow cytometry as previously described.
To elucidate the role of the cytoskeleton in the uptake of FITC-YARA, mesothelial cells were treated with various chemicals known to alter the cytoskeleton. Cytochalasin D (Sigma; 5 µg/ml) was used as an inhibitor of stress fiber formation on tissue culture plastic, lysophosphatidic acid (LPA; Sigma; 1,5,and 25 µg/ml ) was used to induce stress fiber formation on soft substrates and tissue culture plastic, and nocodozole (Calbiochem; 1 and 10 µg/ml) was used to inhibit microtubule polymerization on soft substrates. Cells were seeded and grown on substrates or tissue culture plastic as previously described. Following one hour pretreatment with the various inhibitors, cells were incubated with FITC-YARA for 1 hour then processed for flow cytometry.
For confocal images, cells were treated with FITC-YARA for 1 hour, then washed five times with media before imaging live using an FV1000 confocal microscopy equipped with ASW-10 software (Olympus).

| uptake on soft substrates compared to tissue culture plastic (3 µM FITC-YARA, 24 h, 21,000 cells/cm^2, serum-free media, flow cytometry, trypan blue quench) | uptake on soft substrates with MβCD (soft substrate, 10 mM methyl-β-cyclodextrin pretreatment 1 h then 3 µM peptide 1 h, flow cytometry) | uptake on soft substrates at 4°C (soft substrate, 30 min at 4°C then 3 µM peptide 1 h, flow cytometry) | effect of cytochalasin D (actin filament disruption) on peptide uptake (3 µM, TCPS, 5 µg/ml cytochalasin D 1 h pretreatment, peptide 1 h, flow cytometry) | effect of nocodazole (microtubule polymerization inhibition) on uptake (3 µM, soft substrate, 21,000 cells/cm^2, 1 or 10 µg/ml nocodazole 1 h pretreatment, peptide 1 h, flow cytometry, dose dependent) | effect of LPA (actin filament induction) on peptide uptake (3 µM, soft substrate, 21,000 cells/cm^2, 5 or 25 µg/ml LPA 1 h pretreatment, peptide 1 h, flow cytometry) | Compound | uptake on soft substrates compared to tissue culture plastic at high seeding density (3 µM FITC-YARA, 71,000 cells/cm^2, flow cytometry) | intracellular uptake compared to untreated controls (all substrates, 3 µM FITC-YARA, 24 h, flow cytometry) |
| --- | --- | --- | --- | --- | --- | --- | --- | --- |
| approximately double the uptake | inhibited with MβCD pretreatment | inhibited at low temperatures | – | – | – | CC(C)C[C@H](NC(=O)[C@H](C)NC(=O)[C@H](CCCCN)NC(=O)[C@H](C)NC(=O)[C@H](CCCNC(=N)N)NC(=O)[C@H](C)NC(=O)[C@H](CCC(N)=O)NC(=O)[C@H](CCCNC(=N)N)NC(=O)[C@H](C)NC(=O)[C@H](C)NC(=O)[C@H](C)NC(=O)[C@H](CCCNC(=N)N)NC(=O)[C@H](C)NC(=O)[C@H](Cc1ccc(O)cc1)NC(=O)CCCCCNC(=S)Nc1ccc2c(c1)C(=O)OC21c2ccc(O)cc2Oc2cc(O)ccc21)C(=O)N[C@@H](C)C(=O)N[C@@H](CCCNC(=N)N)C(=O)N[C@@H](CCC(N)=O)C(=O)N[C@@H](CC(C)C)C(=O)NCC(=O)N[C@H](C(=O)N[C@@H](C)C(=O)N[C@@H](C)C(N)=O)C(C)C [FITC-YARA] ({FITC-Ahx}-YARAAARQARAKALARQLGVAA-NH2) | decreased the amount of FITC-YARA that was endocytosed | increased intracellular uptake compared to untreated controls |
| – | – | – | no effect on peptide uptake | pronounced increase in YARA uptake | no effect on peptide uptake | YARAAARQARAKALARQLGVAA-NH2 [YARA] | – | – |
